Measurements from PubChem BioAssay (NCI).
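Test compounds were applied to cells in 96-well plates for 48 hours at 5 doses. TGI: concentration producing complete growth inhibition.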

Key:
Assay in all cases: NCI tumour cell line growth inhibition, 48 h
SW-620 colon = tested on: SW-620 colon
RXF 393 renal = tested on: RXF 393 renal
SF-268 CNS = tested on: SF-268 CNS
COLO 205 colon = tested on: COLO 205 colon
U251 CNS = tested on: U251 CNS
UO-31 renal = tested on: UO-31 renal
MALME-3M melanoma = tested on: MALME-3M melanoma
OVCAR-8 ovarian = tested on: OVCAR-8 ovarian
PC-3 prostate = tested on: PC-3 prostate
NCI-H226 lung = tested on: NCI-H226 lung
BT-549 breast = tested on: BT-549 breast
EKVX NSCLC = tested on: EKVX NSCLC
RPMI-8226 leukemia = tested on: RPMI-8226 leukemia
HT29 colon = tested on: HT29 colon
LOX IMVI melanoma = tested on: LOX IMVI melanoma
IGROV1 ovarian = tested on: IGROV1 ovarian
HCC-2998 colon = tested on: HCC-2998 colon
MCF7 breast = tested on: MCF7 breast
SK-MEL-5 melanoma = tested on: SK-MEL-5 melanoma
MDA-MB-435 = tested on: MDA-MB-435
SK-MEL-28 melanoma = tested on: SK-MEL-28 melanoma
786-0 renal = tested on: 786-0 renal
NCI-H460 lung = tested on: NCI-H460 lung
HOP-62 NSCLC = tested on: HOP-62 NSCLC
HCT-15 colon = tested on: HCT-15 colon
T-47D breast = tested on: T-47D breast
SK-MEL-2 melanoma = tested on: SK-MEL-2 melanoma
ACHN renal = tested on: ACHN renal
UACC-257 melanoma = tested on: UACC-257 melanoma
SN12C renal = tested on: SN12C renal
OVCAR-5 ovarian = tested on: OVCAR-5 ovarian
MDA-N = tested on: MDA-N
OVCAR-4 ovarian = tested on: OVCAR-4 ovarian
HS 578T breast = tested on: HS 578T breast
MOLT-4 leukemia = tested on: MOLT-4 leukemia
SNB-19 CNS = tested on: SNB-19 CNS
CCRF-CEM leukemia = tested on: CCRF-CEM leukemia
HCT-116 colon = tested on: HCT-116 colon
SF-295 CNS = tested on: SF-295 CNS
NCI-H23 lung = tested on: NCI-H23 lung
TK-10 renal = tested on: TK-10 renal
CAKI-1 renal = tested on: CAKI-1 renal
NCI-H522 lung = tested on: NCI-H522 lung
NCI/ADR-RES ovarian = tested on: NCI/ADR-RES ovarian
K-562 leukemia = tested on: K-562 leukemia
A549 NSCLC = tested on: A549 NSCLC
MDA-MB-231 breast = tested on: MDA-MB-231 breast
OVCAR-3 ovarian = tested on: OVCAR-3 ovarian
SNB-75 CNS = tested on: SNB-75 CNS
DU-145 prostate = tested on: DU-145 prostate
SK-OV-3 ovarian = tested on: SK-OV-3 ovarian
KM12 colon = tested on: KM12 colon
HL-60(TB) leukemia = tested on: HL-60(TB) leukemia
UACC-62 melanoma = tested on: UACC-62 melanoma
SF-539 CNS = tested on: SF-539 CNS

SMILES: O=[N+]([O-])c1ccc(N2N=C(c3ccc4ccccc4c3O)CC2c2ccc(Cl)cc2Cl)c([N+](=O)[O-])c1 (stereo not given)
- TGI (SW-620 colon): > 100 µM
- TGI (RXF 393 renal): > 100 µM
- TGI (SF-268 CNS): > 100 µM
- TGI (COLO 205 colon): > 100 µM
- TGI (U251 CNS): > 100 µM
- TGI (UO-31 renal): > 100 µM
- TGI (MALME-3M melanoma): > 100 µM
- TGI (OVCAR-8 ovarian): > 100 µM
- TGI (PC-3 prostate): > 100 µM
- TGI (NCI-H226 lung): > 100 µM
- TGI (BT-549 breast): > 100 µM
- TGI (EKVX NSCLC): > 100 µM
- TGI (RPMI-8226 leukemia): 41.4 µM
- TGI (HT29 colon): > 100 µM
- TGI (LOX IMVI melanoma): > 100 µM
- TGI (IGROV1 ovarian): > 100 µM
- TGI (HCC-2998 colon): > 100 µM
- TGI (MCF7 breast): > 100 µM
- TGI (SK-MEL-5 melanoma): > 100 µM
- TGI (MDA-MB-435): > 100 µM
- TGI (SK-MEL-28 melanoma): > 100 µM
- TGI (786-0 renal): > 100 µM
- TGI (NCI-H460 lung): > 100 µM
- TGI (HOP-62 NSCLC): > 100 µM
- TGI (HCT-15 colon): > 100 µM
- TGI (T-47D breast): > 100 µM
- TGI (SK-MEL-2 melanoma): > 100 µM
- TGI (ACHN renal): > 100 µM
- TGI (UACC-257 melanoma): > 100 µM
- TGI (SN12C renal): > 100 µM
- TGI (OVCAR-5 ovarian): > 100 µM
- TGI (MDA-N): > 100 µM
- TGI (OVCAR-4 ovarian): > 100 µM
- TGI (HS 578T breast): 95.3 µM
- TGI (MOLT-4 leukemia): 38 µM
- TGI (SNB-19 CNS): > 100 µM
- TGI (CCRF-CEM leukemia): 35.5 µM
- TGI (HCT-116 colon): > 100 µM
- TGI (SF-295 CNS): > 100 µM
- TGI (NCI-H23 lung): > 100 µM
- TGI (TK-10 renal): > 100 µM
- TGI (CAKI-1 renal): > 100 µM
- TGI (NCI-H522 lung): > 100 µM
- TGI (NCI/ADR-RES ovarian): > 100 µM
- TGI (K-562 leukemia): 35.5 µM
- TGI (A549 NSCLC): > 100 µM
- TGI (MDA-MB-231 breast): > 100 µM
- TGI (OVCAR-3 ovarian): > 100 µM
- TGI (SNB-75 CNS): > 100 µM
- TGI (DU-145 prostate): > 100 µM
- TGI (SK-OV-3 ovarian): > 100 µM
- TGI (KM12 colon): > 100 µM
- TGI (HL-60(TB) leukemia): 77.4 µM
- TGI (UACC-62 melanoma): > 100 µM
- TGI (SF-539 CNS): 70.6 µM
